# Several values for one entry are separate records, joined by “and”; a condition that tells them apart may be missing. Identical values can stand only once.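 A five-concentration, 48-hour dose response in 96-well plates underlies each endpoint, interpolated linearly between surrounding concentrations. Here, GI50 denotes the concentration required for 50% inhibition of growth. TGI denotes the concentration required for complete inhibition of growth.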
# Key:
# Assay in all cases: NCI anticancer screen, dose series, 48 h
# [1] = system: HS 578T breast
# [2] = system: MALME-3M melanoma
# [3] = system: HL-60(TB) leukemia
# [4] = system: SNB-75 CNS
# [5] = system: CAKI-1 renal
# [6] = system: SK-MEL-2 melanoma
# [7] = system: MOLT-4 leukemia
# [8] = system: NCI-H23 lung
# [9] = system: HCC-2998 colon
# [10] = system: MDA-MB-231 breast
SMILES,GI50 [1],TGI [1],GI50 [2],TGI [2],GI50 [3],TGI [3],GI50 [4],TGI [4],GI50 [5],TGI [5],GI50 [6],TGI [6],GI50 [7],TGI [7],GI50 [8],TGI [8],GI50 [9],TGI [9],GI50 [10],TGI [10]
CN(C)Cc1ccc(NC(=O)c2cncc(C#Cc3cnc(N)c4ncccc34)c2)cc1F,7.85 µM,27.7 µM,1.61 µM,3.19 µM,7.33 µM,35.7 µM,1.38 µM,5.73 µM,15.8 µM,32.3 µM,14 µM,35.3 µM,2.21 µM,5.3 µM,13.7 µM,34 µM,9.83 µM,29.3 µM,1.6 µM,3.13 µM
COS(C)(=O)=O,–,> 2 µM,–,> 2 µM,–,> 2 µM,–,> 2 µM,–,> 2 µM,–,> 2 µM,–,> 2 µM,–,> 2 µM,–,> 2 µM,–,> 2 µM
COc1ccc(S(=O)(=O)Nc2c(/C=C\c3cc(OC)c(OC)c(OC)c3)ccc(OC)c2O)cc1,0.047 µM,> 100 µM,15.1 µM,> 100 µM,0.0235 µM,0.0779 µM,0.0255 µM,88.8 µM,0.0516 µM,79.8 µM,0.0437 µM,37.1 µM,0.0423 µM,> 100 µM,0.052 µM,> 100 µM,0.0316 µM,29.9 µM,0.0503 µM,2.35 µM
COc1ccc(-c2cc(-c3ccc(Cl)cc3)nc(NCCCCNc3ccnc4cc(Cl)ccc34)n2)cc1,14.6 µM,38.9 µM,1.75 µM,3.36 µM,5.08 µM,22.1 µM,10 µM,22.1 µM,10.6 µM,22.6 µM,20.3 µM,52.8 µM,2.65 µM,8.28 µM,2.61 µM,9.3 µM,1.93 µM,3.71 µM,1.72 µM,3.28 µM
CS(=O)(=O)c1cccc(Nc2ncc3cc(-c4ccccc4Cl)ccc3n2)c1,1.23 µM,10.3 µM,1.22 µM,9.84 µM,1.36 µM,> 33.3 µM,0.507 µM,2.3 µM,0.859 µM,9.57 µM,0.92 µM,2.61 µM,1.42 µM,14.6 µM,1.98 µM,> 33.3 µM,2.8 µM,> 33.3 µM,1.37 µM,12.2 µM
CC(=O)Nc1ccc(S(=O)(=O)N=S(C)C)cc1,–,> 100 µM,–,> 100 µM,–,> 100 µM,–,> 100 µM,–,> 100 µM,–,> 100 µM,–,> 100 µM,–,> 100 µM,–,> 100 µM,–,> 100 µM
CCN1C(=O)N(CC)C2C1NN=c1s/c(=C3\C(=O)N(C4CCCC4)c4ccccc43)c(=O)n12 (stereo not drawn),1.01 µM,8.77 µM,1.26 µM,8.74 µM,1.76 µM,4.94 µM,–,–,0.519 µM,> 100 µM,2.76 µM,17.6 µM,3.42 µM,> 100 µM,2.49 µM,13.5 µM,1.65 µM,5.19 µM,2.2 µM,20.6 µM
COc1ccc(-c2cn(-c3ccc(OC)c(OC)c3)c(=O)[nH]2)cc1,> 100 µM,> 100 µM,> 100 µM,> 100 µM,36.9 µM,> 100 µM,24.6 µM,98.7 µM,> 100 µM,> 100 µM,> 100 µM,> 100 µM,1.72 µM,> 100 µM,> 100 µM,> 100 µM,> 100 µM,> 100 µM,> 100 µM,> 100 µM
Cc1nc2sc3c(N)ncnc3c2c(C)c1C,24.9 µM,> 25 µM,> 25 µM,> 25 µM,> 25 µM,> 25 µM,> 25 µM,> 25 µM,> 25 µM,> 25 µM,> 25 µM,> 25 µM,> 25 µM,> 25 µM,> 25 µM,> 25 µM,> 25 µM,> 25 µM,> 25 µM,> 25 µM
COc1cc(-c2nc3ccccc3o2)cc(CN2CCCCC2)c1O,2.37 µM,7.44 µM,1.8 µM,3.87 µM,4.77 µM,36.9 µM,2.3 µM,4.76 µM,14.3 µM,> 100 µM,4.58 µM,15.8 µM,4.99 µM,37.4 µM,1.54 µM,5.26 µM,4.73 µM,22.4 µM,12.2 µM,> 100 µM
Oc1ccc(C(O)(c2ccccc2)c2ccccc2)c2ccccc12,–,44.8 µM,–,23.2 µM,–,> 100 µM,–,18.2 µM,–,11.1 µM,–,7.25 µM,–,> 100 µM,–,11.8 µM,–,–,–,5.27 µM
O=C(Nc1cc(Cl)ccc1O)c1ccccc1Nc1ccnc(C(F)(F)F)c1,2.42 µM,8.54 µM,2.2 µM,7.39 µM,1.46 µM,4.36 µM,2.17 µM,6.55 µM,2.24 µM,7.34 µM,–,–,2.52 µM,6.94 µM,2.63 µM,9.19 µM,3 µM,7.41 µM,2.12 µM,5.19 µM
CCC(C)C1=C(O)[N+]2([O-])Oc3ccc(C4=C(O)C(=O)C(c5ccc(O)cc5)=C(O)C4=O)cc3OC2(C(C)CC)C(=O)N1O (stereo not drawn),7.24 µM,> 100 µM,14.7 µM,48.2 µM,14.2 µM,86.7 µM,> 100 µM,> 100 µM,3.77 µM,30.4 µM,–,–,11 µM,41.8 µM,13.3 µM,> 100 µM,6.78 µM,57.2 µM,15.5 µM,63.8 µM
COc1cc2c(c(OC)c1OC)-c1ccc(SC)c(=O)cc1[C@@H](NC(=O)C(F)(F)F)CC2,–,71.1 µM,–,> 88.1 µM,–,0.194 µM,–,6.29 µM,–,10.3 µM,–,–,–,> 27.2 µM,–,> 4.64 µM,–,> 71.3 µM,–,> 100 µM
CC[C@H](C)[C@H](NC(=O)[C@H]1CCCCN1C)C(=O)N(C)[C@H](C[C@@H](OC(C)=O)c1cccc(C(=O)N[C@@H](Cc2ccccc2)C[C@H](C)C(=O)O)n1)C(C)C,0.002 µM and 0.0025 µM,> 25 µM,1.95 µM,> 25 µM,0.00111 µM and < 0.0025 µM,0.00592 µM and < 0.0025 µM,–,> 25 µM,–,–,0.000774 µM and 0.0025 µM,> 25 µM,0.00364 µM and 0.0025 µM,> 25 µM,0.00356 µM and 0.0025 µM,> 25 µM,0.00551 µM and 0.0025 µM,> 25 µM,0.00316 µM and 0.0025 µM,> 25 µM
Cc1ccc(-c2nc(-c3nccc4ccccc34)oc2-c2ccccc2)cc1,–,> 100 µM,–,> 100 µM,–,> 100 µM,–,92.7 µM,–,> 100 µM,–,> 100 µM,–,> 100 µM,–,> 100 µM,–,–,–,> 100 µM
NC(Cc1c[nH]c2ccc([N+](=O)[O-])cc12)C(=O)O (stereo not drawn),–,> 100 µM,–,> 100 µM,–,> 100 µM,–,> 100 µM,–,> 100 µM,–,> 100 µM,–,> 100 µM,–,> 100 µM,–,–,–,> 100 µM
COc1cc2ncnc(Nc3ccc(Oc4ccnc(C)c4)c(C)c3)c2cc1NC(=O)CC1CCSS1 (stereo not drawn),1.12 µM,3.21 µM,–,–,1.28 µM,2.83 µM,1.41 µM,> 25.2 µM,1.31 µM,> 14.5 µM,0.904 µM,1.91 µM,0.134 µM,0.435 µM,1.07 µM,2.5 µM,–,–,0.895 µM,1.98 µM
CCCc1nc(Cl)c(Cl)c(Cl)n1,–,44.3 µM,–,> 51.4 µM,–,37.2 µM,–,> 100 µM,–,27.7 µM,–,–,–,46.9 µM,–,> 100 µM,–,–,–,67.9 µM
O=C(Nc1cc(Cl)ccc1O)c1cccc(Nc2ccnc(C(F)(F)F)c2)c1,8.27 µM,41.2 µM,2.22 µM,11.2 µM,0.935 µM,4.03 µM,6.27 µM,22.2 µM,2.61 µM,12.7 µM,–,–,1.54 µM,4.73 µM,0.771 µM,7.74 µM,5.01 µM,17.1 µM,2.63 µM,26.7 µM
COc1ccccc1/C=C\C(=O)C1COCN1 (stereo not drawn),–,50.9 µM,–,45.7 µM,–,> 100 µM,–,41.3 µM,–,42.2 µM,–,56.7 µM,–,> 100 µM,–,> 100 µM,–,–,–,38.8 µM
C#CC1(O)C(COP(=O)(O)OCC2OC(n3cc(F)c(=O)[nH]c3=O)CC2O)OC(n2ccc(N)nc2=O)C1O (stereo not drawn),< 0.0265 µM,8.44 µM,< 0.0118 µM,0.444 µM,< 0.011 µM,–,–,–,< 0.01 µM,–,0.0552 µM,5.78 µM,< 0.01 µM,0.0124 µM,< 0.0139 µM,0.449 µM,< 0.01 µM,–,< 0.0133 µM,0.315 µM

# Source: PubChem BioAssay (NCI)
